Results: US12551536B2, “Semaglutide in medical therapy” (Novo Nordisk A/S, priority 2017, dated 2026)

Columns and labels:
Type in all cases: in vivo, human
[1] = 26-week clinical trial in adult patients with T2D: body weight change; conditions: on-treatment, estimated data
Method: (§1) A 26-week, randomized, double-blind clinical trial was carried out with adult patients with T2D, HbA1c 7.0-10.0% (53-86 mmol/mol), and body mass index 24.0-40.0 kg/m^2 who were treated with diet and exercise±metformin. […] The primary endpoint was change in HbA1c from baseline to week 26. Key exclusion criteria were a history of chronic or idiopathic acute pancreatitis and moderate-to-severe renal impairment (estimated glomerular filtration rate <60 mL/min/1.73 m^2).
Trial drug administration: Following a 2-week screening period, patients received trial medication for 26 weeks, followed by a 7-week follow-up period. […] The trial was double blinded within (but not between) each dose level of semaglutide, liraglutide and placebo, as treatment was volume matched.

[2] = 52-week clinical trial in obese subjects without diabetes mellitus: gastrointestinal adverse events; conditions: for Gastrointestinal adverse events, Observed data, % (percentage of subjects with at least one event) / Nausea, % (percentage of subjects experiencing at least one event) / Nausea, E (number of events) / Nausea, Ne (number of subjects experiencing at least one event) / Gastrointestinal adverse events, Observed data, Ne (number of subjects experiencing at least one event): on-treatment; for Nausea, % (percentage of subjects experiencing at least one event) / Nausea, E (number of events) / Nausea, Ne (number of subjects experiencing at least one event): observed data
Method: (§2) This trial was designed as a 52-week, randomised, double-blind, placebo-controlled, sixteen-armed, parallel group, multi-centre, multinational trial comparing once-daily subcutaneous administration of semaglutide in five different doses (ranging from 0.05 mg/day to 0.4 mg/day) with placebo in obese subjects without diabetes mellitus. […] The trial was double-blinded between active and placebo treatment. To ensure a sufficiently large sample of men, no more than 70% of the trial population was allowed to be women and the randomisation was stratified according to sex. Subjects were randomised in a balanced manner (6:1 active:placebo).
(§3) The primary endpoint was relative change from baseline in body weight (%) at 52 weeks. Key secondary endpoints included proportion of subjects with weight loss of ≥5% or ≥10% of baseline body weight at 52 weeks as well as change in body weight from baseline to 52 weeks. Supportive secondary safety endpoints also included gastrointestinal (GI) adverse events (i.e. nausea, vomiting, diarrhoea and constipation). During each site visit the individual subject was asked via open questions if they had experienced any medical problems since the last visit. All medical problems either observed by the site staff or the subject was reported as an adverse event and evaluated for severity and causality by the investigator. For this trial the subjects had site visits every 2 weeks for the first 20 weeks of the trial and afterwards site visits was performed every 4 weeks.
(§4) Subjects in all treatment arms including placebo received nutritional counselling and a calorie-reduced diet by a dietician or equivalent qualified delegate as well as physical activity counselling by a qualified person on a monthly basis beginning at the randomisation visit. The trial population consisted of a total of 957 subjects were randomised. A total of 777 subjects (81.2%) completed 52 weeks of treatment; 180 (18.8%) discontinued treatment prematurely with no obvious dose-dependent trend. Key inclusion criteria for this trial were: Male or female, age ≥18 years at the time of signing inform consent; body mass index (BMI)≥30.0 kg/m2 at the screening visit; and at least one unsuccessful weight loss attempt per investigator judgement. Key exclusion criteria for this trial were: A HbA1c≥6.5% at screening or diagnosed with type 1 or type 2 diabetes mellitus; Treatment with glucose lowering agent(s) within 90 days before screening; Screening calcitonin ≥50 ng/L (pg/mL); Personal or family history of medullary thyroid carcinoma or multiple endocrine neoplasia syndrome type 2; History of pancreatitis (acute or chronic); Obesity induced by endocrine disorders (e.g. Cushing Syndrome); Treatment with any medication within 90 days before screening that based on investigator's judgement may cause significant weight change; Previous surgical treatment for obesity (liposuction and/or abdominoplasty performed >1 year before screening is allowed); History of major depressive disorder within 2 years before randomisation; Any lifetime history of a suicidal attempt; and Female who is pregnant, breast-feeding or intends to become pregnant or is of childbearing potential and not using an adequate contraceptive method (adequate contraceptive measures as required by local regulation or practice).

[3] = 52-week clinical trial of once-daily semaglutide in obese subjects without diabetes mellitus: change in body weight; conditions: for Change in body weight (%) from baseline to week 52, Change (%) Estimate / Change in body weight, Treatment difference (%-points) vs. Lira 3.0 mg / Change in body weight, Treatment difference (%-points) vs. Placebo Pool: ANCOVA, J2R-MI; for Change in body weight (%) from baseline at week 52, Model prediction (Estimate) %: Emax dose-response modelling; for Change in body weight (%) from baseline to week 52, Subjects in-trial, Mean / Change in body weight (%) from baseline to week 52, Subjects on-treatment, Mean: observed data
Method: as §2, §3, §4
Statistical analyses of effect endpoints: The primary analysis was based on a ‘jump-to-reference’ multiple imputation approach (J2R-MI). Week 52 data from subjects who discontinued trial product and returned for the visit at week 52 were included in the analysis. First, an imputation model using observed week 52 body weight (kg) measurements from the placebo arm only were estimated. Second, multiple copies (1000) of the full analysis set were generated by imputing missing values in all treatment arms from the imputation model. The primary endpoint was calculated in each complete data set and analysed using an analysis of covariance (ANCOVA) model. […]

HbA1c = assay: 26-week clinical trial in adult patients with T2D: change in HbA1c; conditions: baseline to week 26
Method: as §1
Trial drug administration: Following a 2-week screening period, patients received trial medication for 26 weeks, followed by a 7-week follow-up period.

[4] = Sema 0.05 mg once daily s.c., N 103
[5] = Sema 0.1 mg once daily s.c., N 102
[6] = Sema 0.2 mg once daily s.c., N 103
[7] = Sema 0.3 mg once daily s.c., N 103
[8] = Sema 0.4 mg once daily s.c., N 102
[9] = Sema 0.05 mg once daily s.c., week 52
[10] = Sema 0.1 mg once daily s.c., week 52
[11] = Sema 0.2 mg once daily s.c., week 52
[12] = Sema 0.3 mg once daily s.c., week 52
[13] = Sema 0.4 mg once daily s.c., week 52

In the case of “N^6.26-{18-[N-(17-carboxyheptadecanoyl)-L-γ-glutamyl]-10-oxo-3,6,12,15-tetraoxa-9,18-diazaoctadecanoyl}-[8-(2-amino-2-propanoic acid),34-L-arginine]human glucagon-like peptide 1(7-37) [Sema]”, the “Body weight change, mean (kg), baseline to week 26” value (“Body weight change, mean (kg)” below) ([1]; Sema 0.05 mg once daily s.c.) is reported as -2.8 kg, the “Body weight change, mean (kg)” value ([1]; Sema 0.1 mg once daily s.c.) is reported as -4.3 kg and the “Body weight change, mean (kg)” value ([1]; Sema 0.2 mg once daily s.c.) is reported as -6.7 kg. For the same substance, the “Body weight change, mean (kg)” value ([1]; Sema 0.3 mg once daily s.c.) was -8.2 kg, the “Corresponding Sema dose (dosage of semaglutide providing the same level of gastrointestinal adverse events as 3.0 mg liraglutide)” value ([2]; Lira 3.0 mg, Emax model, Estimate [95% CI]) was 0.28 mg and the “Gastrointestinal adverse events, Observed data, % (percentage of subjects with at least one event)” value ([2]; Sema 0.05 mg once daily s.c.) was 62.1%. For the same substance, the “Nausea, % (percentage of subjects experiencing at least one event)” value ([2]; Sema 0.05 mg once daily s.c.) was 31.1%, the “Nausea, E (number of events)” value ([2]; Sema 0.05 mg once daily s.c.) was 41 and the “Nausea, Ne (number of subjects experiencing at least one event)” value (“Nausea, Ne” for short) [2, 4] was 32. The “Gastrointestinal adverse events, Observed data, Ne (number of subjects experiencing at least one event)” value [2, 4] was 64, the “Gastrointestinal adverse events, Observed data, % (percentage of subjects with at least one event)” value ([2]; Sema 0.1 mg once daily s.c.) was 70.6% and the “Nausea, % (percentage of subjects experiencing at least one event)” value ([2]; Sema 0.1 mg once daily s.c.) was 41.2%. The “Nausea, E (number of events)” value ([2]; Sema 0.1 mg once daily s.c.) was 80, the “Nausea, Ne” value [2, 5] was 42 and the “Gastrointestinal adverse events, Observed data, Ne (number of subjects experiencing at least one event)” value [2, 5] was 72. For the same substance, the “Gastrointestinal adverse events, Observed data, % (percentage of subjects with at least one event)” value ([2]; Sema 0.2 mg once daily s.c.) was 69.9%, the “Nausea, % (percentage of subjects experiencing at least one event)” value ([2]; Sema 0.2 mg once daily s.c.) was 43.7% and the “Nausea, E (number of events)” value ([2]; Sema 0.2 mg once daily s.c.) was 74. For the same substance, the “Nausea, Ne” value [2, 6] was 45, the “Gastrointestinal adverse events, Observed data, Ne (number of subjects experiencing at least one event)” value [2, 6] was 72 and the “Gastrointestinal adverse events, Observed data, % (percentage of subjects with at least one event)” value ([2]; Sema 0.3 mg once daily s.c.) was 69.9%. For the same substance, the “Nausea, % (percentage of subjects experiencing at least one event)” value ([2]; Sema 0.3 mg once daily s.c.) was 41.7%, the “Nausea, E (number of events)” value ([2]; Sema 0.3 mg once daily s.c.) was 69 and the “Nausea, Ne” value [2, 7] was 43. For the same substance, the “Gastrointestinal adverse events, Observed data, Ne (number of subjects experiencing at least one event)” value [2, 7] was 72, the “Gastrointestinal adverse events, Observed data, % (percentage of subjects with at least one event)” value ([2]; Sema 0.4 mg once daily s.c.) was 82.4% and the “Nausea, % (percentage of subjects experiencing at least one event)” value ([2]; Sema 0.4 mg once daily s.c.) was 48.0%. For the same substance, the “Nausea, E (number of events)” value ([2]; Sema 0.4 mg once daily s.c.) was 94, the “Nausea, Ne” value [2, 8] was 49 and the “Gastrointestinal adverse events, Observed data, Ne (number of subjects experiencing at least one event)” value [2, 8] was 84. The “Corresponding Sema dose (dosage of semaglutide providing the same body weight reduction as 3.0 mg liraglutide)” value ([3]; Lira 3.0 mg, Emax model, Estimate [95% CI], week 52) was 0.08 mg, the “Change in body weight (%) from baseline to week 52, Change (%) Estimate” value (“Change in body weight (%) … (%) Estimate” for short) ([3]; Sema 0.05 mg once daily s.c.) was −5.99% and the “Change in body weight, Treatment difference (%-points) vs. Lira 3.0 mg” value [3, 9] was 1.77 %-points. The “Change in body weight, Treatment difference (%-points) vs. Placebo Pool” value [3, 9] was −3.70 %-points, the “Change in body weight (%) from baseline at week 52, Model prediction (Estimate) %” value (shortened to “Change … Model prediction (Estimate) %”) ([3]; Sema 0.05 mg) was −6.19% and the “Change in body weight (%) … (%) Estimate” value ([3]; Sema 0.1 mg once daily s.c.) was −8.62%. The “Change in body weight (%) from baseline to week 52, Subjects in-trial, Mean” value ([3]; Sema 0.1 mg once daily s.c.) was −9.11%, the “Change in body weight (%) from baseline to week 52, Subjects on-treatment, Mean” value ([3]; Sema 0.1 mg once daily s.c.) was −9.76% and the “Change in body weight, Treatment difference (%-points) vs. Lira 3.0 mg” value [3, 10] was −0.85 %-points. For the same substance, the “Change in body weight, Treatment difference (%-points) vs. Placebo Pool” value [3, 10] was −6.32 %-points, the “Change … Model prediction (Estimate) %” value ([3]; Sema 0.1 mg) was −8.47% and the “Change in body weight (%) … (%) Estimate” value ([3]; Sema 0.2 mg once daily s.c.) was −11.60%. The “Change in body weight (%) from baseline to week 52, Subjects in-trial, Mean” value ([3]; Sema 0.2 mg once daily s.c.) was −12.54%, the “Change in body weight (%) from baseline to week 52, Subjects on-treatment, Mean” value ([3]; Sema 0.2 mg once daily s.c.) was −13.68% and the “Change in body weight, Treatment difference (%-points) vs. Lira 3.0 mg” value [3, 11] was −3.83 %-points. The “Change in body weight, Treatment difference (%-points) vs. Placebo Pool” value [3, 11] was −9.31 %-points, the “Change … Model prediction (Estimate) %” value ([3]; Sema 0.2 mg) was −11.00% and the “Change in body weight (%) … (%) Estimate” value ([3]; Sema 0.3 mg once daily s.c.) was −11.17%. For the same substance, the “Change in body weight (%) from baseline to week 52, Subjects in-trial, Mean” value ([3]; Sema 0.3 mg once daily s.c.) was −12.06%, the “Change in body weight (%) from baseline to week 52, Subjects on-treatment, Mean” value ([3]; Sema 0.3 mg once daily s.c.) was −12.97% and the “Change in body weight, Treatment difference (%-points) vs. Lira 3.0 mg” value [3, 12] was −3.41 %-points. For the same substance, the “Change in body weight, Treatment difference (%-points) vs. Placebo Pool” value [3, 12] was −8.88 %-points, the “Change … Model prediction (Estimate) %” value ([3]; Sema 0.3 mg) was −12.37% and the “Change in body weight (%) … (%) Estimate” value ([3]; Sema 0.4 mg once daily s.c.) was −13.84%. The “Change in body weight (%) from baseline to week 52, Subjects in-trial, Mean” value ([3]; Sema 0.4 mg once daily s.c.) was −13.96%, the “Change in body weight (%) from baseline to week 52, Subjects on-treatment, Mean” value ([3]; Sema 0.4 mg once daily s.c.) was −16.17% and the “Change in body weight, Treatment difference (%-points) vs. Lira 3.0 mg” value [3, 13] was −6.08 %-points. For the same substance, the “Change in body weight, Treatment difference (%-points) vs. Placebo Pool” value [3, 13] was −11.55 %-points, the “Change … Model prediction (Estimate) %” value ([3]; Sema 0.4 mg) was −13.24% and the “Change in body weight (%) from baseline to week 52, Subjects in-trial, Mean” value ([3]; Sema 0.5 mg once daily s.c.) was −6.33%. The “Change in body weight (%) from baseline to week 52, Subjects on-treatment, Mean” value ([3]; Sema 0.5 mg once daily s.c.) was −6.79%, the “Mean Change in HbA1c % (SD)” value (HbA1c; Sema 0.05 mg once daily s.c.) was −0.97 (0.85) % and the “Mean Change in HbA1c % (SD)” value (HbA1c; Sema 0.1 mg once daily s.c.) was −1.30 (1.03) %. The “Mean Change in HbA1c % (SD)” value (HbA1c; Sema 0.2 mg once daily s.c.) was −1.65 (0.79) % and the “Mean Change in HbA1c % (SD)” value (HbA1c; Sema 0.3 mg once daily s.c.) was −1.96 (0.95) %.
